Experimental data published in patent US8372971B2, “Heterocyclic compounds and methods of use” (TargeGen, Inc., priority 2004, dated 2013).
Structures can show the parent of a compound that is named as a salt.

Tests used:
[1] = test system: p-MEK and p-ERK levels in HUVECs; assay: Western Blot, inhibition of MAPK pathway in cellular assay (Example 105); assay type: cell-based, human; settings: 50 ng/ml VEGF or FGF
Method: Some compounds described by the general structure (B) were tested for inhibition of MAPK pathway in cellular assay. Western Blot: Early passage primary human umbilical vein endothelial cells (HUVECs) were maintained in EGM-2 containing SingleQuots (Cambrex, East Rutherford, N.J.), 10% FBS, 10 mM HEPES, and 50 μg/ml gentamicin. Prior to treatment of the cells with inhibitor, the HUVECs were starved for 18 h by replacing serum-containing complete media with serum-free and SingleQuot-free media. The starved cells were pre-treated with inhibitors for 60 min at various concentrations (0-20 μM). Next the HUVECs were treated with 50 ng/ml VEGF or FGF (Peprotech, Rocky Hill, N.J.) for 6 min and the cells were immediately washed with ice-cold PBS. Cells were lysed with ice-cold RIPA buffer containing 100 mM Tris pH 7.5, 150 mM NaCl, 1 mM EDTA, 1% deoxycholate, 1% Triton X-100, 0.1% SDS, 2 mM PMSF, one Complete-Mini protease inhibitor tablet (Roche, Indianapolis, Ind.; 1 tablet/7 ml of lysis buffer) and the phophatase inhibitors NaF (500 mM) and orthovanadate (1 mM). The cells were scraped and lysates transferred and centrifuged at 15,000 g for 10 main. Supernatants were transferred to new tubes and protein concentration was quantitated using the BCA protein reagent (Pierce, Rockford, Ill.). Cell lysates containing 20 μg of total protein were separated by 10% SDS-PAGE, transferred to nitrocellulose, and blocked in 5% milk in TBST. Anti phospho-ERK Thr 202/Tyr 204 (Cell Signaling, Beverly, Mass.), anti-phospho-MEK Ser217/221 (Cell Signaling), and c-Raf (BD Biosciences Pharmingen, San Diego, Calif.) used as primary antibodies were detected with horseradish peroxidase-conjugated goat anti-mouse or rabbit secondary antibodies and bands were visualized using the SuperSignal West Pico chemiluminescence reagent system (Pierce) and Kodak X-ray film (Rochester, N.Y.).

HUVECs = assay: XTT cell viability assay (Example 106); assay type: cell-based, human; settings: Homo sapiens, HUVEC, 72 hours, read-out: Inhibition of HUVEC cell prolifiration (IC50)
Method: Some compounds described by the general structure (B) were tested for cell viability. XTT assay: HUVECs were seeded at 10,000 cells/well of a tissue culture treated 96-well plate treated with collagen type I and grown overnight in the complete EGM-2 media as described above. The following morning, the inhibitors were serial diluted with DMSO and added to the cells with a final DMSO concentration of 1%. After 72 hours cell viability was measured with an XTT assay (Sigma, St. Louis, Mo.). The cells were also photographed to compare morphological differences to the XTT trends observed. Determination of the IC50 values was performed with quantitative software (Prism software package, GraphPad Software, San Diego Calif.).

Structure (SMILES)	Western Blot ([1]; at 10 uM)	IC50 (HUVECs)	Western Blot ([1]; at 5 uM)
O=C(Nc1nnc(-c2ccc(Oc3cccnc3)cc2)o1)c1ccc2c(c1)OC(F)(F)O2 [2,2-Difluoro-N-{5-[4-(pyridin-3-yloxy)phenyl]-1,3,4-oxadiazol-2-yl}-1,3-benzodioxole-5-carboxamide]	not active at 10 uM	> 40 µM	
O=C(Nc1nnc(-c2ccc(Oc3cccnc3)cc2)o1)c1cc(C(F)(F)F)cc(Cl)c1F [3-Chloro-2-fluoro-N-{5-[4-pyridin-3-yloxy)phenyl]-1,3,4-oxadiazol-2-yl}-5-trifluoromethyl)-benzamide]	not active at 10 uM	> 40 µM	
O=C(Nc1nnc(-c2ccc(Oc3cccnc3)cc2)o1)c1ccc(Br)cc1 [4-Bromo-N-{5-[4-(pyridin-3-yloxy)phenyl]-1,3,4-oxadiazol-2-yl}-benzamide]	not active at 10 uM	> 40 µM	
O=C(Nc1nnc(-c2ccc(Oc3cccnc3)cc2)o1)c1ccc(F)c(C(F)(F)F)c1 [4-Fluoro-N-{5-[4-(pyridin-3-yloxy)phenyl]-1,3,4-oxadiazol-2-yl}-3-(trifluoromethyl)-benzamide]	active at 10 uM	~20 µM	
CNC(=O)c1cc(Oc2ccc(-c3nnc(Nc4ccc(Cl)c(C(F)(F)F)c4)o3)cc2)ccn1 [4-[4-(5-{[4-chloro-3-(trifluoromethyl)phenyl]amino}-1,3,4-oxadiazol-2-yl)phenoxy]-N-methylpyridine-2-carboxamide trifluoroacetate salt]		5.6 µM	active at 5 uM
CNC(=O)c1cc(Oc2ccc(Nc3nnc(-c4ccc(Cl)c(C(F)(F)F)c4)[nH]3)cc2)ccn1 [4-[4-({5-[4-chloro-3-(trifluoromethyl)phenyl]-4H-1,2,4-triazol-3-yl}amino)phenoxy]-N-methylpyridine-2-carboxamide trifluoroacetate salt]		> 40 µM	
COc1ccc(C(=O)Nc2nnc(-c3ccc(Oc4cccnc4)cc3)o2)cc1C(F)(F)F [4-methoxy-N-{5-[4-(pyridin-3-yloxy)phenyl]-1,3,4-oxadiazol-2-yl}-3-(trifluoromethyl)-benzamide]	active at 10 uM	> 40 µM	
CNC(=O)c1cc(Oc2cccc(-c3nnc(Nc4ccc(Cl)c(C(F)(F)F)c4)[nH]3)c2)ccn1 [4-{3-[5-(4-chloro-3-trifluoromethyl-phenylamino)-4H-[1,2,4]triazol-3-yl]-phenoxy}-pyridine-2-carboxylic acid methylamide trifluoroacetic acid salt]		> 20 µM	
CNC(=O)c1cc(Oc2ccc(-c3nnc(Nc4ccc(Cl)c(C(F)(F)F)c4)[nH]3)cc2)ccn1 [4-{4-[5-(4-chloro-3-trifluoromethyl-phenylamino)-4H-[1,2,4]triazol-3-yl]-phenoxy}-pyridine-2-carboxylic acid methylamide trifluoroacetic acid salt]	active at 10 uM	2.85 µM	
CNC(=O)c1cc(Oc2ccc(Nc3nnc(-c4ccc(OC(F)(F)F)cc4)[nH]3)cc2)ccn1 [4-{4-[5-(4-trifluoromethoxy-phenyl)-4H-[1,2,4]triazol-3-ylamino]-phenoxy}-pyridine-2-carboxylic acid methylamide trifluoroacetic acid salt]		2.2 µM	
CNC(=O)c1cc(Oc2ccc(-c3nnc(Nc4ccc(OC(F)(F)F)cc4)[nH]3)cc2)ccn1 [4-{4-[5-(4-trifluoromethoxy-phenylamino)-4H-[1,2,4]triazol-3-yl]-phenoxy}-pyridine-2-carboxylic acid methylamide trifluoroacetic acid salt]		> 40 µM	
Br.Nc1nnc(-c2ccc(Oc3cccnc3)cc2)o1 [5-[4-(Pyridin-3-yloxy)phenyl]-1,3,4-oxadiazol-2-amine hydrobromide salt]	not active at 10 uM	> 40 µM	
FC(F)(F)c1cccc(Nc2nnc(-c3ccc(Oc4cccnc4)cc3)o2)c1 [5-[4-(Pyridin-3-yloxy)phenyl]-N-[3-trifluoromethyl-phenyl]-1,3,4-oxadiazol-2-amine]	active at 10 uM	> 20 µM	
Clc1ccc(Nc2nnc(-c3ccc(Oc4cccnc4)cc3)o2)cc1 [5-[4-(Pyridin-3-yloxy)phenyl]-N-[4-chloro-phenyl]-1,3,4-oxadiazol-2-amine]	active at 10 uM	9.6 µM	
FC(F)(F)c1ccc(Cl)c(Nc2nnc(-c3ccc(Oc4cncnc4)cc3)o2)c1 [5-[4-(Pyrimidin-5-yloxy)phenyl]-N-[2-chloro-5-(trifluoromethyl)-phenyl]-1,3,4-oxadiazol-2-amine]		~20 µM	
FC(F)(F)c1cccc(Nc2nnc(-c3ccc(Oc4cncnc4)cc3)o2)c1 [5-[4-(Pyrimidin-5-yloxy)phenyl]-N-[3-(trifluoromethyl)phenyl]-1,3,4-oxadiazol-2-amine]		> 10 µM	active at 5 uM
Clc1cccc(Nc2nnc(-c3ccc(Oc4cncnc4)cc3)o2)c1 [5-[4-(Pyrimidin-5-yloxy)phenyl]-N-[3-chloro-phenyl]-1,3,4-oxadiazol-2-amine]		~20 µM	active at 5 uM
Clc1ccc(Nc2nnc(-c3ccc(Oc4cncnc4)cc3)o2)cc1 [5-[4-(Pyrimidin-5-yloxy)phenyl]-N-[4-chloro-phenyl]-1,3,4-oxadiazol-2-amine]		> 20 µM	active at 5 uM
FC(F)(F)c1cc(-c2nnc(Nc3ccc(Oc4cccnc4)cc3)[nH]2)ccc1Cl [5-[4-chloro-3-(trifluoromethyl)phenyl]-N-[4-(pyridine-3-yloxy)phenyl]-4H-1,2,4-triazol-3-amine trifluoroacetate salt]		> 40 µM	active at 5 uM
FC(F)(F)c1cc(-c2nnc(Nc3ccc(Oc4ccncc4)cc3)[nH]2)ccc1Cl [5-[4-chloro-3-(trifluoromethyl)phenyl]-N-[4-(pyridine-4-yloxy)phenyl]-4H-1,2,4-triazol-3-amine trifluoroacetate salt]		> 40 µM	
Nc1cc(Oc2ccc(-c3nnc(Nc4cc(C(F)(F)F)ccc4Cl)o3)cc2)nc(N)n1 [6-(4-{5-[(2-chloro-5-trifluoromethyl-phenyl)amino]-1,3,4-oxadiazol-2-yl}phenoxy)pyrimidine-2,4-diamine]		~20 µM	
Nc1ccc(Oc2ccc(-c3nnc(Nc4ccc(Cl)c(C(F)(F)F)c4)[nH]3)cc2)nn1 [6-{4-[5-(4-chloro-3-trifluoromethyl-phenylamino)-4H-[1,2,4]triazol-3-yl]-phenoxy}-pyridazin-3-ylamine trifluoroacetic acid salt]		1.79 µM	
Nc1ccc(Oc2ccc(-c3nnc(Nc4ccc(OC(F)(F)F)cc4)[nH]3)cc2)nn1 [6-{4-[5-(4-trifluoromethoxy-phenylamino)-4H-[1,2,4]triazol-3-yl]-phenoxy}-pyridazin-3-ylamine trifluoroacetic acid salt]		> 20 µM	
Nc1cc(Oc2ccc(-c3nnc(Nc4ccc(OC(F)(F)F)cc4)[nH]3)cc2)nc(N)n1 [6-{4-[5-(4-trifluoromethoxy-phenylamino)-4H-[1,2,4]triazol-3-yl]-phenoxy}-pyrimidine-2,4-diamine trifluoroacetic acid salt]		6 µM	
FC(F)(F)Oc1ccc(Nc2nnc(-c3ccc(Oc4ccncc4)cc3)[nH]2)cc1 [{5-[4-(pyridin-4-yloxy)-phenyl]-4H-[1,2,4]triazol-3-yl]-(4-trifluoromethoxy-phenyl)-amine trifluoroacetic acid salt]		> 40 µM	
